Laboratory results reported in patent US11548883B2, “Compounds as autotaxin inhibitors and pharmaceutical compositions comprising the same” (LegoChem Biosciences, Inc., priority 2017, dated 2023).
pIC50: −log10 of the molar value.

Assays:
Format in all cases: biochemical
[1] = test system: LPA production in blood serum; experiment: Inhibitory activity on LPA production in human blood serum; conditions: human blood serum (h), 18:1 LPC added
[2] = test system: LPA production in blood serum; experiment: Inhibitory activity on LPA production in mouse blood serum; conditions: mouse blood serum (m), 18:1 LPC added
human ENPP2 = human ENPP2 (Homo sapiens (Human), UniProt Q13822); experiment: Inhibitory activity on human ENPP2 (FS-3 assay); conditions: human ENPP2, FS-3 substrate, Table 2
Experimental: Two-fold dilution of each test compound solution (10 μM, 100% dimethyl sulfoxide) is carried out on 96-well V bottom plate (Costar 3363). After ten-fold dilution of each the test compound solution (100% dimethyl sulfoxide) with deionized distilled water, 10 μL of the diluted each compound solution (10% dimethyl sulfoxide) was aliquoted to a black flat bottom 96-well plate (Costar 3915).

Question: What does the source list for `O=C(Cn1cc(-c2cnc(NC3Cc4ccccc4C3)nc2)c(OCc2ccccc2)n1)N1CCc2[nH]nnc2C1` [Compound 63, 2-[3-(benzyloxy)-4-{2-[(2,3-dihydro-1H-inden-2-yl)amino]pyrimidin-5-yl}-1H-pyrazol-1-yl]-1-{1H,4H,5H,6H,7H-[1,2,3]triazolo[4,5-c]pyridin-5-yl}ethan-1-one]?
Answer: pIC50 [1]: 8.00; pIC50 [2]: 7.92

Question: `O=C(Cn1cc(-c2cnc(NC3Cc4ccccc4C3)nc2)c(OCCN2CCOCC2)n1)N1CCc2[nH]nnc2C1` [Compound 66, 2-(4-{2-[(2,3-dihydro-1H-inden-2-yl)amino]pyrimidin-5-yl}-3-[2-(morpholin-4-yl)ethoxy]-1H-pyrazol-1-yl)-1-{1H,4H,5H,6H,7H-[1,2,3]triazolo[4,5-c]pyridin-5-yl}ethan-1-one] was tested. Which pIC50 (human ENPP2) did it give?
Answer: 8.72

Question: What about the pIC50 [2] of the same molecule?
Answer: 7.92

Question: How did the pIC50 (human ENPP2) turn out when `CCN1CC(Oc2nn(CC(=O)N3CCc4[nH]nnc4C3)cc2-c2cnc(NC3Cc4ccccc4C3)nc2)C1` [Compound 68, 2-(4-{2-[(2,3-dihydro-1H-inden-2-yl)amino]pyrimidin-5-yl}-3-[(1-ethylazetidin-3-yl)oxy]-1H-pyrazol-1-yl)-1-{1H,4H,5H,6H,7H-[1,2,3]triazolo[4,5-c]pyridin-5-yl}ethan-1-one] was run?
Answer: 8.74

Question: What about the pIC50 [2] of the same molecule?
Answer: 7.49

Question: `CCN1CCC(Oc2nn(CC(=O)N3CCc4[nH]nnc4C3)cc2-c2cnc(NC3Cc4ccccc4C3)nc2)CC1` [Compound 70, 2-(4-{2-[(2,3-dihydro-1H-inden-2-yl)amino]pyrimidin-5-yl}-3-[(1-ethylpiperidin-4-yl)oxy]-1H-pyrazol-1-yl)-1-{1H,4H,5H,6H,7H-[1,2,3]triazolo[4,5-c]pyridin-5-yl}ethan-1-one] was tested. Which pIC50 (human ENPP2) did it give?
Answer: 8.64

Question: And the pIC50 [2]?
Answer: 7.96

Question: With `O=C(O)c1ccc(COc2nn(CC(=O)N3CCc4[nH]nnc4C3)cc2-c2cnc(NC3Cc4ccccc4C3)nc2)cc1` [Compound 72, 4-{[(4-{2-[(2,3-dihydro-1H-inden-2-yl)amino]pyrimidin-5-yl}-1-(2-oxo-2-{1H,4H,5H,6H,7H-[1,2,3]triazolo[4,5-c]pyridin-5-yl}ethyl)-1H-pyrazol-3-yl)oxy]methyl}benzoic Acid] as the molecule, how does the pIC50 (human ENPP2) read?
Answer: 8.47

Question: And the pIC50 [2]?
Answer: 7.38

Question: With `O=C(O)COc1nn(CC(=O)N2CCc3[nH]nnc3C2)cc1-c1cnc(NC2Cc3ccccc3C2)nc1` [Compound 73, 2-[(4-{2-[(2,3-dihydro-1H-inden-2-yl)amino]pyrimidin-5-yl}-1-(2-oxo-2-{1H,4H,5H,6H,7H-[1,2,3]triazolo[4,5-c]pyridin-5-yl}ethyl)-1H-pyrazol-3-yl)oxy]acetic Acid] as the molecule, how does the pIC50 (human ENPP2) read?
Answer: 8.43

Question: And the pIC50 [2]?
Answer: 7.16

Question: How did the pIC50 (human ENPP2) turn out when `CN(C)c1nn(CC(=O)N2CCc3[nH]nnc3C2)cc1-c1cnc(NC2Cc3ccccc3C2)nc1` [Compound 74, 2-(4-{2-[(2,3-dihydro-1H-inden-2-yl)amino]pyrimidin-5-yl}-3-(dimethylamino)-1H-pyrazol-1-yl)-1-{1H,4H,5H,6H,7H-[1,2,3]triazolo[4,5-c]pyridin-5-yl}ethan-1-one] was run?
Answer: 8.77

Question: And the pIC50 [2]?
Answer: 7.82

Question: Which results are given for `CCc1nn(CC(=O)N2CCc3[nH]nnc3C2)cc1-c1cnc(NC2Cc3ccccc3C2)nc1` [Compound 79, 2-(4-{2-[(2,3-dihydro-1H-inden-2-yl)amino]pyrimidin-5-yl}-3-ethyl-1H-pyrazol-1-yl)-1-{1H,4H,5H,6H,7H-[1,2,3]triazolo[4,5-c]pyridin-5-yl}ethan-1-one]?
Answer: pIC50 [1]: 8.30; pIC50 (human ENPP2): 8.80

Question: `O=C(Cn1cc(-c2cnc(NC3Cc4ccccc4C3)nc2)c(CN2CCOCC2)n1)N1CCc2[nH]nnc2C1` [Compound 80, 2-(4-{2-[(2,3-dihydro-1H-inden-2-yl)amino]pyrimidin-5-yl}-3-(morpholin-4-ylmethyl)-1H-pyrazol-1-yl)-1-{1H,4H,5H,6H,7H-[1,2,3]triazolo[4,5-c]pyridin-5-yl}ethan-1-one] was tested. Which pIC50 (human ENPP2) did it give?
Answer: > 8.81

Question: What about the pIC50 [2] of the same molecule?
Answer: 8.22

Question: What does the source list for `O=C(Cn1cc(-c2cnc(NC3Cc4ccccc4C3)nc2)c(CN2CCCCC2)n1)N1CCc2[nH]nnc2C1` [Compound 81, 2-(4-{2-[(2,3-dihydro-1H-inden-2-yl)amino]pyrimidin-5-yl}-3-(piperidin-1-ylmethyl)-1H-pyrazol-1-yl)-1-{1H,4H,5H,6H,7H-[1,2,3]triazolo[4,5-c]pyridin-5-yl}ethan-1-one]?
Answer: pIC50 (human ENPP2): > 8.81; pIC50 [2]: 8.30

Question: How did the pIC50 (human ENPP2) turn out when `O=C1CN(Cc2nn(CC(=O)N3CCc4[nH]nnc4C3)cc2-c2cnc(NC3Cc4ccccc4C3)nc2)CCN1` [Compound 82, 4-[(4-{2-[(2,3-dihydro-1H-inden-2-yl)amino]pyrimidin-5-yl}-1-(2-oxo-2-{1H,4H,5H,6H,7H-[1,2,3]triazolo[4,5-c]pyridin-5-yl}ethyl)-1H-pyrazol-3-yl)methyl]piperazin-2-one] was run?
Answer: > 8.81

Question: What about the pIC50 [2] of the same molecule?
Answer: 8.10

Question: Which results are given for `O=C(Cn1cc(-c2cnc(NC3Cc4ccccc4C3)nc2)c(CN2CCc3ccccc3C2)n1)N1CCc2[nH]nnc2C1` [Compound 84, 2-(4-{2-[(2,3-dihydro-1H-inden-2-yl)amino]pyrimidin-5-yl}-3-(1,2,3,4-tetrahydroisoquinolin-2-ylmethyl)-1H-pyrazol-1-yl)-1-{1H,4H,5H,6H,7H-[1,2,3]triazolo[4,5-c]pyridin-5-yl}ethan-1-one]?
Answer: pIC50 (human ENPP2): 8.55; pIC50 [2]: 8.10
